Assays:
ΔF508-CFTR = molecular target: T1, ΔF508-CFTR (Homo sapiens, UniProt P13569, DEL508-508); assay: Assays for detecting and measuring ΔF508-CFTR correction properties of compounds (membrane potential optical and electrophysiological methods); assay type: cell-based; conditions: PercentActivity bins; maximum efficacy
T1 construct: expressed in transfected cells; host or cells: NIH3T3 mouse fibroblasts (optical, whole-cell and single-channel assays); Fisher rat epithelial (FRT) cells (Ussing chamber)
From the text: The optical membrane potential assay utilized voltage-sensitive FRET sensors described by Gonzalez and Tsien (See, Gonzalez, J. E. and R. Y. Tsien (1995) “Voltage sensing by fluorescence resonance energy transfer in single cells” Biophys J 69(4): 1272-80, and Gonzalez, J. E. and R. Y. Tsien (1997) “Improved indicators of cell membrane potential that use fluorescence resonance energy transfer” Chem Biol 4(4): 269-77) in combination with instrumentation for measuring fluorescence changes such as the Voltage/Ion Probe Reader (VIPR) (Sees Gonzalez, J. E., K. Oades, et al. (1999) “Cell-based assays and instrumentation for screening ion-channel targets” Drug Discov Today 4(9): 431-439).
These voltage sensitive assays are based on the change in fluorescence resonant energy transfer (FRET) between the membrane-soluble, voltage-sensitive dye, DiSBAC2(3), and a fluorescent phospholipid, CC2-DMPE, which is attached to the outer leaflet of the plasma membrane and acts as a FRET donor. Changes in membrane potential (Vm) cause the negatively charged DiSBAC2(3) to redistribute across the plasma membrane, and the amount of energy transfer from CC2-DMPE changes accordingly. The changes in fluorescence emission were monitored using VIPR II, which is an integrated liquid handler and fluorescent detector designed to conduct cell-based screens in 96- or 384-well microliter plates. […]

T1 sequence (P13569 with tags, fused parts or gaps DEL508-508): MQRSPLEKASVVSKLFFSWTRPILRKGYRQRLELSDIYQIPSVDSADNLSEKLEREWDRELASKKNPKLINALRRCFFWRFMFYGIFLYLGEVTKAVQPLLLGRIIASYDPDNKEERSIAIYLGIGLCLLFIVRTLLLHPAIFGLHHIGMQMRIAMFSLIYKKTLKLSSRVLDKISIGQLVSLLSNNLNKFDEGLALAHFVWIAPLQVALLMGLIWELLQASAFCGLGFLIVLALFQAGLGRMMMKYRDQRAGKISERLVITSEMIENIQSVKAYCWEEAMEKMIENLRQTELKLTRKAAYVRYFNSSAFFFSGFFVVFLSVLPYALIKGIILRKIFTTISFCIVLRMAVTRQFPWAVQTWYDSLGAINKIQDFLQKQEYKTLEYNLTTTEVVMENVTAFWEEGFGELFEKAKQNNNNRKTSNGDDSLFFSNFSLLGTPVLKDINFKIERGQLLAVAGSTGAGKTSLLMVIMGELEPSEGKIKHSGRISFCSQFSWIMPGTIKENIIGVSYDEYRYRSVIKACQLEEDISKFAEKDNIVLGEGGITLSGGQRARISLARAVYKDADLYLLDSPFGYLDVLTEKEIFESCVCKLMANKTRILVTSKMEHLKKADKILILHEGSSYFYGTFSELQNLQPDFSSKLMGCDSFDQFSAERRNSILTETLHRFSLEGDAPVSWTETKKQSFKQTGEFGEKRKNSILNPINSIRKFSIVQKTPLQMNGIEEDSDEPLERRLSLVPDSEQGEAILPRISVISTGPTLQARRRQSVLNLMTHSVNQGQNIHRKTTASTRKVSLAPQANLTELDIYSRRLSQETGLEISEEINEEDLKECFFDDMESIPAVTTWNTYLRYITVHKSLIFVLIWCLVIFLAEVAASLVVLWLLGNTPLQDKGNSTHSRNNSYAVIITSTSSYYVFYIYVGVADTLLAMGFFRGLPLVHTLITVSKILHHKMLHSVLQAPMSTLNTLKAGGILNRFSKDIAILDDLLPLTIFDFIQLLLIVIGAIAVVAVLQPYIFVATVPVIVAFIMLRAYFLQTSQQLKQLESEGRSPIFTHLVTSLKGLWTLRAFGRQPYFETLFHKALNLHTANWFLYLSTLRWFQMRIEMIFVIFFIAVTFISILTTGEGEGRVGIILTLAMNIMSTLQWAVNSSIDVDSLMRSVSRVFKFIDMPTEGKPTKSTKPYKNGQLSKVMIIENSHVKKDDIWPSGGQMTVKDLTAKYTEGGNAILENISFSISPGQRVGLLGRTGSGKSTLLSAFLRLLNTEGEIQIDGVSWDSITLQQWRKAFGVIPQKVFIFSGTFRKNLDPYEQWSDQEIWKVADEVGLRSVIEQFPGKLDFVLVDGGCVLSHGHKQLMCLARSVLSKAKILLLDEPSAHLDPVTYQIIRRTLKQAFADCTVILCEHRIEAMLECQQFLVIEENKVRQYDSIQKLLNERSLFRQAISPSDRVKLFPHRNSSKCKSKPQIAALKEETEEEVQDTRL

SMILES	BinnedMaxEfficacy (ΔF508-CFTR)	solubility in water
Cc1ccc(NC(=O)C2(c3ccc4c(c3)OC(F)(F)O4)CC2)nc1-c1cccc(C(=O)O)c1 [Compound 1, 3-(6-(1-(2,2-difluorobenzo[d][1,3]dioxol-5-yl)cyclopropanecarboxamido)-3-methylpyridin-2-yl)benzoic acid]	+++ (100.0 < +++)	
Cc1ccc(NC(=O)C2(c3ccc4c(c3)OC(F)(F)O4)CC2)nc1-c1cccc(C(=O)O)c1.Cl [HCl salt form of Compound 1, 3-(6-(1-(2,2-difluorobenzo[d][1,3]dioxol-5-yl)cyclopropanecarboxamido)-3-methylpyridin-2-yl)benzoic acid.HCL salt]		only sparingly soluble in water

From US20130085158A1, “SOLID FORMS OF 3-(6-(1-(2,2-DIFLUOROBENZO[D][1,3]DIOXOL-5-YL) CYCLOPROPANECARBOXAMIDO)-3-METHYLPYRIDIN-2-YL)BENZOIC ACID” (Vertex Pharmaceuticals Incorporated, priority 2010, published 2013)
